Test results taken from the NIST ThermoML archive (doi:10.1021/je700621d).
Numbers after ± are expanded uncertainties.

Legend:
[1] = for mass density: Liquid, Vibrating tube method; for surface tension liquid-gas: Pendant drop shape
[2] = xn = mol fraction of the nth substance listed; settings: 298 K; for surface tension liquid-gas: Pendant drop shape; for mass density: 101 kPa, Liquid, Vibrating tube method

CCCCCCCC[N+](C)(CCCCCCCC)CCCCCCCC.O=S(=O)([N-]S(=O)(=O)C(F)(F)F)C(F)(F)F
[1], 101.33 kPa
Settings	mass density [kg/m3]
278.15 K	1119.8 ± 8.8
288.15 K	1112.2 ± 8.7
298.15 K	1104.6 ± 8.5
308.15 K	1097.2 ± 8.4
318.15 K	1089.6 ± 8.3
328.15 K	1082.1 ± 8.2

[1]
Settings	surface tension liquid-gas [mN/m]
278.75 K	29.65 ± 0.82
288.15 K	28.92 ± 0.8
298.15 K	27.93 ± 0.77
308.15 K	27.02 ± 0.75
318.15 K	26.56 ± 0.74
328.15 K	26.03 ± 0.73

CCCC[n+]1ccn(C)c1.O=S(=O)([N-]S(=O)(=O)C(F)(F)F)C(F)(F)F
[1], 101.33 kPa
Settings	mass density [kg/m3]
278.15 K	1456.1 ± 15
288.15 K	1446.2 ± 15
298 K	1436.4 ± 15
298.15 K	1436.6 ± 15
308.15 K	1427 ± 14
318.15 K	1417.4 ± 14
328.15 K	1407.9 ± 14

[1]
Settings	surface tension liquid-gas [mN/m]
278.75 K	33.8 ± 0.92
288.15 K	33.37 ± 0.91
298 K	32.8 ± 0.88
298.15 K	32.8 ± 0.9
308.15 K	32.32 ± 0.88
318.15 K	31.89 ± 0.87
328.15 K	31.28 ± 0.86

CCn1cc[n+](C)c1.O=S(=O)([N-]S(=O)(=O)C(F)(F)F)C(F)(F)F
[1], 101.33 kPa
Settings	mass density [kg/m3]
278.15 K	1539.1 ± 17
288.15 K	1528.9 ± 16
298.15 K	1518.7 ± 16
308.15 K	1508.7 ± 16
318.15 K	1498.6 ± 16
328.15 K	1488.7 ± 16

[1]
Settings	surface tension liquid-gas [mN/m]
278.75 K	37.31 ± 1
288.15 K	36.58 ± 0.99
298.15 K	35.71 ± 0.97
308.15 K	35.17 ± 0.96
318.15 K	34.68 ± 0.94
328.15 K	34.25 ± 0.93

CCCC[n+]1ccn(C)c1.O=S(=O)([N-]S(=O)(=O)C(F)(F)F)C(F)(F)F + CCCCO
[2]
Settings	mass density [kg/m3]	surface tension liquid-gas [mN/m]
x1 = 0.0941	962.2 ± 0.2	23.98 ± 0.27
x1 = 0.2025	1087.1 ± 0.5	23.88 ± 0.29
x1 = 0.2045	1089 ± 0.5	23.8 ± 0.29
x1 = 0.306	1172.6 ± 1.1	24.16 ± 0.33
x1 = 0.3064	1172.5 ± 1.1	24.25 ± 0.33
x1 = 0.3964	1230.5 ± 1.8	25.17 ± 0.37
x1 = 0.5002	1283.6 ± 3	26.79 ± 0.45
x1 = 0.5977	1323.5 ± 4.5	28.32 ± 0.52
x1 = 0.6848	1354.8 ± 6.1	29.56 ± 0.6
x1 = 0.8016	1388.6 ± 8.7	30.96 ± 0.7
x1 = 0.8986	1413.4 ± 11	31.94 ± 0.79
x1 = 1	1436.4 ± 14	32.8 ± 0.88

CCCC[n+]1ccn(C)c1.O=S(=O)([N-]S(=O)(=O)C(F)(F)F)C(F)(F)F + CCCO
[2]
Settings	mass density [kg/m3]	surface tension liquid-gas [mN/m]
x1 = 0.035	878.2 ± 0.1	23.6 ± 0.26
x1 = 0.131	1036.2 ± 0.3	24.16 ± 0.28
x1 = 0.202	1116.5 ± 0.5	24.73 ± 0.3
x1 = 0.296	1194.1 ± 1	25.77 ± 0.34
x1 = 0.373	1243.5 ± 1.7	26.47 ± 0.38
x1 = 0.517	1311.8 ± 3.4	28.6 ± 0.48
x1 = 0.664	1361.9 ± 5.8	29.89 ± 0.59
x1 = 0.685	1368 ± 6.2	30.54 ± 0.61
x1 = 0.884	1422 ± 11	32.49 ± 0.79
x1 = 1	1436.4 ± 14	32.8 ± 0.88

CCCCCCCCOS(=O)(=O)[O-].CCCCn1cc[n+](C)c1 [1-butyl-3-methylimidazolium octyl sulfate]
[1], 101.33 kPa
Settings	mass density [kg/m3]
278.15 K	1077.3 ± 8.1
288.15 K	1070.4 ± 8
298.15 K	1063.8 ± 7.9
308.15 K	1057.1 ± 7.8
318.15 K	1050.8 ± 7.7
328.15 K	1044.3 ± 7.6

[1]
Settings	surface tension liquid-gas [mN/m]
278.75 K	28.08 ± 0.78
288.15 K	27.29 ± 0.76
298.15 K	26.71 ± 0.74
308.15 K	26.27 ± 0.73
318.15 K	25.72 ± 0.72
328.15 K	24.99 ± 0.7

CCOS(=O)(=O)[O-].CCn1cc[n+](C)c1 [1-ethyl-3-methylimidazolium ethyl sulfate]
[1], 101.33 kPa
Settings	mass density [kg/m3]
278.15 K	1255.1 ± 11
288.15 K	1248.1 ± 11
298.15 K	1241.1 ± 11
308.15 K	1234.2 ± 11
318.15 K	1227.3 ± 11
328.15 K	1220.6 ± 10

[1]
Settings	surface tension liquid-gas [mN/m]
278.75 K	46.7 ± 1.2
288.15 K	46.04 ± 1.2
298.15 K	45.43 ± 1.2
308.15 K	44.72 ± 1.2
318.15 K	43.74 ± 1.2
328.15 K	43.37 ± 1.2

CCCCO [butan-1-ol]
Settings	surface tension liquid-gas [mN/m]
[1], 298 K	23.96 ± 0.26

Settings	mass density [kg/m3]
[1], 298 K, 101.3 kPa	805.3 ± 0.2

CCCCO [butan-1-ol] + CCCC[n+]1ccn(C)c1.O=S(=O)([N-]S(=O)(=O)C(F)(F)F)C(F)(F)F
[2], x2 = 0
Settings	mass density [kg/m3]	surface tension liquid-gas [mN/m]
–	805.3 ± 0.2	23.96 ± 0.26

CCCC[N+](C)(C)C.O=S(=O)([N-]S(=O)(=O)C(F)(F)F)C(F)(F)F [butyltrimethylammonium bis(trifluoromethylsulfonyl)imide]
[1], 101.33 kPa
Settings	mass density [kg/m3]
278.15 K	1412.3 ± 14
288.15 K	1403 ± 14
298.15 K	1394 ± 14
308.15 K	1385 ± 14
318.15 K	1376.1 ± 13
328.15 K	1367.3 ± 13

[1]
Settings	surface tension liquid-gas [mN/m]
278.75 K	33.31 ± 0.91
288.15 K	33.04 ± 0.9
298.15 K	32.46 ± 0.89
308.15 K	32 ± 0.88
318.15 K	31.21 ± 0.86
328.15 K	30.64 ± 0.84

CCCO [propan-1-ol]
Settings	surface tension liquid-gas [mN/m]
[1], 298 K	23.34 ± 0.26

Settings	mass density [kg/m3]
[1], 298 K, 101.3 kPa	799 ± 0.2

CCCO [propan-1-ol] + CCCC[n+]1ccn(C)c1.O=S(=O)([N-]S(=O)(=O)C(F)(F)F)C(F)(F)F
[2], x2 = 0
Settings	mass density [kg/m3]	surface tension liquid-gas [mN/m]
–	799 ± 0.2	23.34 ± 0.26
